Measured values as given in PubChem BioAssay AID1963428 (Molecular Pharmacology Branch, DTP, NCI, 2024).
“And” between values parts separate entries of the source, which are not always exact repeats. Identical values can stand only once.

System: 171881-019-R-J1-PDC complex spheroid growth, % test/control
Test: Anticancer human tumor 171881-019-R-J1-PDC patient-derived invasive breast carcinoma cell line growth inhibition [Asc]
Conditions: for viability, T/C: stronger effect = lower value; active = viability on the fitted dose curve at most 10% of control; inactive = the rest
In short: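 Concentration series start at each agent's clinical Cmax, or at 10 microM when none is established, and drop in half-log steps; agents are applied alone or together to complex spheroids built with HUVEC and hMSC.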

[1] = curve of first compound, second compound 0.1 µM
[2] = curve of first compound, second compound 0.316 µM
[3] = curve of first compound, second compound 1 µM
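For viability, T/C in this document: spheroids exposed to compounds for 7 days.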

CCN1C(C(=O)NC23CCC(C(=O)O)(CC2)CC3)C(c2cccc(Cl)c2F)C2(C(=O)Nc3cc(Cl)ccc32)C12CCCCC2 (centres undefined) + Cc1c(S(C)(=O)=O)c(-c2cc(F)cc(N3CCN(c4ccc(NS(=O)(=O)c5ccc(NC(CCN6CCC(C(=O)OCCCP(=O)(O)O)CC6)CSc6ccccc6)c(S(=O)(=O)C(F)(F)F)c5)cc4)CC3)c2)c(-c2ccc(Cl)cc2)n1C(C)C
inactive: viability, T/C (second compound 0.1 µM, first compound 0.00949 µM) 82.5% | viability, T/C (second compound 0.1 µM, first compound 0.03 µM) 107% | viability, T/C (second compound 0.1 µM, first compound 0.0949 µM) 102% | viability, T/C (second compound 0.1 µM, first compound 0.3 µM) 90.5% | viability, T/C (second compound 0.1 µM, first compound 0.949 µM) 105% | viability, T/C (second compound 0.1 µM, first compound 3 µM) 120% | viability, T/C (second compound 0.316 µM, first compound 0.00949 µM) 100% | viability, T/C (second compound 0.316 µM, first compound 0.03 µM) 110% | viability, T/C (second compound 0.316 µM, first compound 0.0949 µM) 129% | viability, T/C (second compound 0.316 µM, first compound 0.3 µM) 105% | viability, T/C (second compound 0.316 µM, first compound 0.949 µM) 144% | viability, T/C (second compound 0.316 µM, first compound 3 µM) 146% | viability, T/C (second compound 1 µM, first compound 0.00949 µM) 116% | viability, T/C (second compound 1 µM, first compound 0.03 µM) 133% | viability, T/C (second compound 1 µM, first compound 0.0949 µM) 129% | viability, T/C (second compound 1 µM, first compound 0.3 µM) 117% | viability, T/C (second compound 1 µM, first compound 0.949 µM) 130% | viability, T/C (second compound 1 µM, first compound 3 µM) 167% | viability, T/C (second compound 3.16 µM, first compound 0.00949 µM) 152% | viability, T/C (second compound 3.16 µM, first compound 0.03 µM) 147% | viability, T/C (second compound 3.16 µM, first compound 0.0949 µM) 159% | viability, T/C (second compound 3.16 µM, first compound 0.3 µM) 162% | viability, T/C (second compound 3.16 µM, first compound 0.949 µM) 146% | viability, T/C (second compound 3.16 µM, first compound 3 µM) 163% | viability, T/C (second compound 10 µM, first compound 0.00949 µM) 192% | viability, T/C (second compound 10 µM, first compound 0.03 µM) 179% | viability, T/C (second compound 10 µM, first compound 0.0949 µM) 182% | viability, T/C (second compound 10 µM, first compound 0.3 µM) 185% | viability, T/C (second compound 10 µM, first compound 0.949 µM) 193% | viability, T/C (second compound 10 µM, first compound 3 µM) 172%
> 3 µM: IC50 [1] | IC50 [2] | IC50 [3] | IC50 (curve of first compound, second compound 3.16 µM) | IC50 (curve of first compound, second compound 10 µM)

CCN1CCN(Cc2ccc(Nc3ncc(F)c(-c4cc(F)c5nc(C)n(C(C)C)c5c4)n3)nc2)CC1
> 1 µM: IC50 (curve of compound)
inactive: viability, T/C (compound 0.00316 µM) 97.1% and 108% and 114% | viability, T/C (compound 0.01 µM) 79.1% and 101% (2×) | viability, T/C (compound 0.0316 µM) 97.8% and 111% and 105% | viability, T/C (compound 0.1 µM) 109% and 104% and 128% | viability, T/C (compound 0.316 µM) 110% and 120% and 131% | viability, T/C (compound 1 µM) 130% and 141% and 128%

C=C(F)C(=O)N1CCN(c2nc(OCC3CCCN3C)nc3c2CCN(c2cccc4cccc(Cl)c24)C3)CC1CC#N (centres undefined) + CCN1C(C(=O)NC23CCC(C(=O)O)(CC2)CC3)C(c2cccc(Cl)c2F)C2(C(=O)Nc3cc(Cl)ccc32)C12CCCCC2
6.18 µM: IC50 (curve of first compound, second compound 0.3 µM)
active: viability, T/C (second compound 0.03 µM, first compound 10 µM) 1.23% | viability, T/C (second compound 0.0949 µM, first compound 10 µM) 0.23% | viability, T/C (second compound 0.3 µM, first compound 10 µM) 0.58% | viability, T/C (second compound 0.949 µM, first compound 10 µM) 0.88% | viability, T/C (second compound 3 µM, first compound 10 µM) 0.37%
5.86 µM: IC50 (curve of first compound, second compound 0.0949 µM)
6 µM: IC50 (curve of first compound, second compound 3 µM)
5.96 µM: IC50 (curve of first compound, second compound 0.03 µM)
5.79 µM: IC50 (curve of first compound, second compound 0.949 µM)
inactive: viability, T/C (second compound 0.03 µM, first compound 0.0316 µM) 107% | viability, T/C (second compound 0.03 µM, first compound 0.1 µM) 105% | viability, T/C (second compound 0.03 µM, first compound 0.316 µM) 104% | viability, T/C (second compound 0.03 µM, first compound 1 µM) 110% | viability, T/C (second compound 0.03 µM, first compound 3.16 µM) 122% | viability, T/C (second compound 0.0949 µM, first compound 0.0316 µM) 99.9% | viability, T/C (second compound 0.0949 µM, first compound 0.1 µM) 107% | viability, T/C (second compound 0.0949 µM, first compound 0.316 µM) 112% | viability, T/C (second compound 0.0949 µM, first compound 1 µM) 108% | viability, T/C (second compound 0.0949 µM, first compound 3.16 µM) 110% | viability, T/C (second compound 0.3 µM, first compound 0.0316 µM) 117% | viability, T/C (second compound 0.3 µM, first compound 0.1 µM) 105% | viability, T/C (second compound 0.3 µM, first compound 0.316 µM) 112% | viability, T/C (second compound 0.3 µM, first compound 1 µM) 120% | viability, T/C (second compound 0.3 µM, first compound 3.16 µM) 141% | viability, T/C (second compound 0.949 µM, first compound 0.0316 µM) 118% | viability, T/C (second compound 0.949 µM, first compound 0.1 µM) 120% | viability, T/C (second compound 0.949 µM, first compound 0.316 µM) 108% | viability, T/C (second compound 0.949 µM, first compound 1 µM) 111% | viability, T/C (second compound 0.949 µM, first compound 3.16 µM) 104% | viability, T/C (second compound 3 µM, first compound 0.0316 µM) 108% | viability, T/C (second compound 3 µM, first compound 0.1 µM) 103% | viability, T/C (second compound 3 µM, first compound 0.316 µM) 107% | viability, T/C (second compound 3 µM, first compound 1 µM) 113% | viability, T/C (second compound 3 µM, first compound 3.16 µM) 128%

C=C(F)C(=O)N1CCN(c2nc(OCC3CCCN3C)nc3c2CCN(c2cccc4cccc(Cl)c24)C3)CC1CC#N (centres undefined) + CNC(C)C(=O)NC1CN(S(=O)(=O)c2cccc(S(=O)(=O)N3CCC4CCC(C(=O)NC(c5ccccc5)c5ccccc5)N4C(=O)C(NC(=O)C(C)NC)C3)c2)CCC2CCC(C(=O)NC(c3ccccc3)c3ccccc3)N2C1=O
5.65 µM: IC50 (curve of first compound, second compound 0.01 µM)
active: viability, T/C (second compound 0.01 µM, first compound 10 µM) 1.9% | viability, T/C (second compound 0.0316 µM, first compound 10 µM) 0.82% | viability, T/C (second compound 0.1 µM, first compound 10 µM) 1.02% | viability, T/C (second compound 0.316 µM, first compound 10 µM) 2.51% | viability, T/C (second compound 1 µM, first compound 10 µM) 1.17%
inactive: viability, T/C (second compound 0.01 µM, first compound 0.0316 µM) 93.5% | viability, T/C (second compound 0.01 µM, first compound 0.1 µM) 91.3% | viability, T/C (second compound 0.01 µM, first compound 0.316 µM) 95% | viability, T/C (second compound 0.01 µM, first compound 1 µM) 101% | viability, T/C (second compound 0.01 µM, first compound 3.16 µM) 113% | viability, T/C (second compound 0.0316 µM, first compound 0.0316 µM) 90% | viability, T/C (second compound 0.0316 µM, first compound 0.1 µM) 88.8% | viability, T/C (second compound 0.0316 µM, first compound 0.316 µM) 76.7% | viability, T/C (second compound 0.0316 µM, first compound 1 µM) 112% | viability, T/C (second compound 0.0316 µM, first compound 3.16 µM) 112% | viability, T/C (second compound 0.1 µM, first compound 0.0316 µM) 95.9% | viability, T/C (second compound 0.1 µM, first compound 0.1 µM) 97.2% | viability, T/C (second compound 0.1 µM, first compound 0.316 µM) 100% | viability, T/C (second compound 0.1 µM, first compound 1 µM) 104% | viability, T/C (second compound 0.1 µM, first compound 3.16 µM) 107% | viability, T/C (second compound 0.316 µM, first compound 0.0316 µM) 81.3% | viability, T/C (second compound 0.316 µM, first compound 0.1 µM) 91.1% | viability, T/C (second compound 0.316 µM, first compound 0.316 µM) 86.1% | viability, T/C (second compound 0.316 µM, first compound 1 µM) 106% | viability, T/C (second compound 0.316 µM, first compound 3.16 µM) 111% | viability, T/C (second compound 1 µM, first compound 0.0316 µM) 90.3% | viability, T/C (second compound 1 µM, first compound 0.1 µM) 84.6% | viability, T/C (second compound 1 µM, first compound 0.316 µM) 86.5% | viability, T/C (second compound 1 µM, first compound 1 µM) 95.5% | viability, T/C (second compound 1 µM, first compound 3.16 µM) 106%
5.69 µM: IC50 [1]
5.51 µM: IC50 (curve of first compound, second compound 0.0316 µM)
5.41 µM: IC50 [3]
5.54 µM: IC50 [2]

C=C(F)C(=O)N1CCN(c2nc(OCC3CCCN3C)nc3c2CCN(c2cccc4cccc(Cl)c24)C3)CC1CC#N (centres undefined)
5.43 µM and 5.72 µM and 5.49 µM: IC50 (curve of compound)
active: viability, T/C (compound 10 µM) 0.42% and 0.28% and 0.66%
inactive: viability, T/C (compound 0.0316 µM) 85.9% and 113% and 104% | viability, T/C (compound 0.1 µM) 86% and 98.9% and 99.5% | viability, T/C (compound 0.316 µM) 116% and 99.8% and 93.9% | viability, T/C (compound 1 µM) 82.4% and 111% and 84.5% | viability, T/C (compound 3.16 µM) 98.7% and 103% and 95.5%
